What was measured:
Chlorella minutissima = experiment: Encapsulation of curcumin in algae cells using pressure assisted encapsulation; type: physicochemical; conditions: vacuum sealing, 5% ethanol, 100 mg cells
Text: (§1) Briefly, 1 gm of yeast or algal cells pellet is suspended in the 35% ethanolic solution of the selected bioactive compound. […] We have determined the % ethanol to achieve sufficient encapsulation of the selected encapsulated bioactive compounds using both the vacuum and high pressure assisted encapsulation process. Yeast or algal cell samples suspended in the ethanolic solution with the bioactive compound are sealed in boilable vacuum bags (Prime Source) at 99% vacuum (Ultravac 250, Koch Equipment LLC). […] The sealed samples are covered with aluminum foil to prevent any photo-degradation of the bioactives and incubated at room temperature (25° C.) for 10 minutes. Samples are emptied into 50 mL centrifuge tubes, centrifuged at 2200 rpm for 10 minutes to pellet the cells and the pelleted cells are washed twice with ethanolic solution (35%) and then five times with excess water to remove unencapsulated bioactives. Cells are sonicated to disrupt the cellular structure. […] The concentration of bioactive compound dissolved in the organic phase is measured using UV-vis spectrophotometer. […] The encapsulation efficiency is determined as follows: [formula] where CE is the mass of extracted bioactive from the cells after encapsulation and CT is the amount of bioactive initially added to the cells. […]

Chlorella sorokiniana = experiment: as above; type: physicochemical; conditions: vacuum sealing, 5% ethanol, 50 mg cells
Text: as §1

L. starkeyi (51-55) = experiment: Encapsulation of curcumin into cultured yeast, lipogenesis induced or suppressed; type: physicochemical, Lipomyces starkeyi; conditions: vacuum infused, 35% ethanol
Text: Increased lipid content both improves the relative encapsulation efficiency of hydrophobic bioactives and the oxidative stability of encapsulated bioactives. In this aim, three strains (Saccharomyces cerevisiae, Candida utilis, Phaffia rhodozyma) of yeast with high and low lipid content (high lipid ascomycete and Saccharomyces cerevisiae (low lipid)) are selected. Similarly, and two strains of algal cells are selected (Chlorella minutissima (UTEX 2341), Chlorella sorokiniana (UTEX 2805). The yeast and algal cells are cultured to achieve varying levels of lipid content by influencing the extracellular nutrients, e.g. in the case of algal cells, deprivation of nitrogen in extracellular media can shift the metabolism to generate lipids, with varying levels of nitrogen, intracellular lipid content is modulated. The intracellular lipids are extracted from freeze dried yeast and algal cells and measured using established gravimetric methods. To induce lipogenesis, 5 mL of the pre-culture are transferred into a 500 mL baffled conical flask with 95 mL of media A (50 g/L glucose, 1.5 g/L yeast extract, 0.5 g/L NH4Cl, 7.0 g/L KH2PO4, 2.5 g/L Na2HPO4.2H2O, 1.5 g/L MgSO4.7H2O, 0.08 g/L FeCl3.6H2O, 10.0 mg/L ZnSO4.7H2O, 0.07 mg/L MnSO4.H2O, 0.1 mg/L CuSO4, 0.063 mg/L Co(NO3)2) and closed with a foam cap. […]

E. coli (BL21) = experiment: Encapsulation efficiency into bacteria by vacuum infusion; type: physicochemical; conditions: vacuum infused, 35% ethanol
porcine mouth mucosa = experiment: Curcumin release and diffusion in porcine mouth mucosa from yeast encapsulation system
Procedure: Curcumin release and diffusion in porcine mouth mucosa from yeast encapsulation system was evaluated. Yeast microcapsules loaded with curcumin were topically applied on the porcine oral cavity tissue. After incubations for corresponding time periods, curcumin permeation was detected by imaging the tissue cross-sections. Both integrated pixel intensity and penetration distance from skin top surface were calculated. The results are depicted in FIG. 18. […] Furthermore, the yeast carriers can be engineered to act as a programmable microcarrier system that can provide controlled or triggered release of bioactive components in oral mucosa. This engineering can be accomplished by physical, chemical and/or genetic modification of the cell wall and cytoplasmic composition of yeast cells including modification of their lipid content.

Mass of Encapsulated Bioactive in Algae (Chlorella minutissima): 0.184 mg/g
Mass of Encapsulated Bioactive in Algae (Chlorella sorokiniana): 0.355 mg/g
Mass of Encapsulated Bioactive in Yeast (L. starkeyi (51-55); lipogenesis Induced): 0.559 mg/g
Mass of Encapsulated Bioactive in Yeast (L. starkeyi (51-55); lipogenesis Suppressed): 0.466 mg/g
Mass of Encapsulated Bioactive in Bacteria (E. coli (BL21)): 0.489 mg/g
integrity of the compound in tissue (porcine mouth mucosa; after 12 h): remained intact
Compound: COc1cc(/C=C/C(=O)CC(=O)/C=C/c2ccc(O)c(OC)c2)ccc1O [Curcumin, curcumin]
diffusion into mouth mucosa tissue (porcine mouth mucosa; yeast microcapsules loaded with curcumin, topically applied): diffused into mouth mucosa tissue with a strong time-dependent manner

Source: patent US10864168B2, “Bioactive delivery vehicles” (The Regents of the University of California, priority 2014, dated 2020)
